# Experiments:
# [1] = system: intracellular AOSs, fibroblast line L929; assay: in vitro assay of intracellular AOSs (H2DCF-DA probe) after H2O2/iron oxidative stress; type: cell-based, murin; conditions: 400 μg/ml, pre-incubation 3 h, L929, 18 tests
# Source text: We set up an in vitro study model of oxidative stress induced by H2O2/iron as H2O2 generates huge amounts of intracellular AOSs as a result of a chain reaction triggered by oxidation of membrane lipids.
# This technique is based on the use of a fluorescent probe, 6-carboxy-2′,7′-dichlorodihydro fluorescein diacetate, di (acetoxymethyl ester) (H2DCF-DA) which once it penetrates into the cell is deacetylated by intracellular esterases and thus forms H2DCF. This product is oxidized by intracellular AOSs into a highly fluorescent compound: 2′,7′-dichlorofluorescein (DCF) (Suematsu M et al., 1996, Free Radicals Practical Approach, Punchard ed. P 83-99).
# The materials and methods used for in vitro assay of intracellular AOSs are given below. • a) Cell tool • Cutaneous murin fibroblast cell line L929. • b) Materials • 96 well flat based microplate. • Cytofluor II cytofluorameter: Ref. PERCEPTIVE BIOSYSTEMS. • c) Reagents • Cell culture reagents: • Dulbecco's Modified Eagle Medium as the culture medium (DMEM) • Foetal calf serum • Phosphate buffer PBS pH 7.4 • Trypsin EDTA (1X) Fluorescent probe • 6-carboxy-2′,7′-dichlorodihydrofluorescein diacetate, di(acetoxymethyl ester) (PM.675,43) Cell stimulation products • Hydrogen peroxide (H2O2) 3% Ref. GIFRER (Gifrer Barbezat Laboratory) • Ferrous ammonium sulphate (Fe^2+) • Ferric ammonium sulphate (Fe^3+) • d) Products tested:
# For the evaluation of unsaturated fatty hydroxy acid derivatives, the dilutions are prepared in freshly prepared culture medium for a concentration range of 0.02, 0.2, 2 and 20 ng/ml. • e) Protocol. Cell culturing.
# Cells from the fibroblast line L929 were cultured in 96-well flat base microplates in 100 μl of DMEM supplemented with 10% foetal calf serum. These were incubated overnight at 37° C. in a humid atmosphere at 5% CO2. The blank plate without cells was evaluated using 6 wells.
# Dilutions of the products to be tested and reference molecule were made up in culture medium without foetal calf serum then deposited in 7 wells at a rate of 100 μl per well.
# Cells were then incubated for 3 hours at 37° C. in a humid atmosphere at 5% CO2.
# Cells were rinsed in PBS 1X at a rate of 100 μl per well. They were then incubated for 30 minutes at 37° C. in a humid atmosphere at 5% CO2 with 50 μl of the H2DCF-DA probe at 5 μM.
# After 30 minutes of contact with the probe alone, cells were incubated for 30 minutes at 37° C. in a humid atmosphere at 5% CO2 with the addition of 25 μl of H2O2 at 800 μM and 25 μl of ferrous iron and ferric iron solution at 8 mM in order to obtain final concentrations of 200 μM of H2O2 and 2 mM of ferrous iron and ferric iron.
# Cells were then rinsed with PBS 1X at a rate of 100 μl per well then incubated for 30 minutes at 37° C. in a humid atmosphere at 5% CO2 with 100 μl of PBS 1X.
# This incubation for 1 h 30 minutes at 37° C. allows intracellular esterases to deacetylate the probe into H2DCF which can be oxidized by the intracellular AOSs into DCF: a fluorescent compound whose formation is proportional to the quantity of intracellular AOSs.
# The intensity of fluorescence is read on a cytofluorimeter at λexcitation=485 nm and λemission=530 nm. This reflects the amount of intracellular AOS produced.
# The ratio below makes it possible to calculate the % protection against the production of intracellular AOSs for each product concentration tested (because the intensity of fluorescence or IF reflects the release of intracellular AOSs)
# • Pre-incubation: 3 h • Number of tests=3 for all compounds. • Number of tests=18 for vit. E
# [2] = system: membrane lipids, fibroblast line L929; assay: TBARS test, lipid peroxidation after H2O2/Fe2+/Fe3+; type: cell-based, murin; conditions: 400 μg/ml
structure (smiles),measurement,setting,value
"Cc1c(C)c2c(c(C)c1O)CC[C@@](C)(CCC[C@H](C)CCC[C@H](C)CCCC(C)C)O2 [Vit. E, alphatocopherol]",Percentage inhibition of the intracellular production of AOS,[1],Vit. E 400 μg/ml 47%
same,"% membrane lipid protection, Mean",[2],44.66%
same,"% membrane lipid protection, Mean",[2]; listed as Vitamin E,protects cell membranes very effectively
